Assay results reported in ChEMBL document CHEMBL5370616, “Novel Nitric Oxide Donor-Azole Conjugation Strategy for Efficient Treatment of Cryptococcus neoformans Infections” (J Med Chem, 2023).
Values after ≈ are worked out from the molar mass of the structure shown. Active and inactive are the calls of the source. The calls are words filed in the database; no cut-off is given here.

Key:
Cryptococcus neoformans [1] = test: Inhibition of CYP51 in Cryptococcus neoformans H99 assessed as increase in lanosterol level at 4 ug/ml incubated for 24 hrs by GC-MS analysis (Rvb= 6.24%); details: dose 4.0 µg/ml
Cryptococcus neoformans [2] = test: Inhibition of CYP51 in Cryptococcus neoformans H99 assessed as reduction in ergosterol level at 4 ug/ml incubated for 24 hrs by GC-MS analysis (Rvb= 58.33%); details: dose 4.0 µg/ml
Candida albicans [3] = test: Antifungal activity against Candida albicans 0304103 assessed as reduction in fungal growth incubated for 48 hrs by CLSI protocol based microplate reader analysis; assay type: functional
Cryptococcus neoformans [4] = test: Disruption of preformed mature biofilm in Cryptococcus neoformans H99 assessed as removal of mature biofilm at 0.125 to 32 ug/ml incubated for 24 hrs by XTT reduction assay; assay type: functional, organism-based; details: dose 0.125-32 µg/ml
Cryptococcus neoformans [5] = test: Inhibition of CYP51 in Cryptococcus neoformans H99 assessed as decrease in unknown sterol level at 4 ug/ml incubated for 24 hrs by GC-MS analysis (Rvb= 22.95%); details: dose 4.0 µg/ml
Cryptococcus neoformans [6] = test: Antifungal activity against Cryptococcus neoformans H99 assessed as reduction in number of colonies at 0.125 to 1 ug/ml incubated for 72 hrs by agar disk diffusion assay; assay type: functional; details: dose 0.125-1 µg/ml
Cryptococcus neoformans [7] = test: Antifungal activity against Cryptococcus neoformans H99 assessed as reduction in fungal growth at 4 ug/ml incubated upto 72 hrs by microplate reader analysis; assay type: functional, organism-based; details: dose 4.0 µg/ml
Cryptococcus neoformans [8] = test: Antifungal activity against Cryptococcus neoformans H99 assessed as reduction in fungal growth incubated for 72 hrs by CLSI protocol based microplate reader analysis; assay type: functional
Cryptococcus neoformans [9] = test: Antifungal activity against Cryptococcus neoformans H99 assessed as change in internal microstructure by observing sparse capsule at 4 ug/ml incubated for 8 hrs by TEM analysis; assay type: functional, organism-based; details: dose 4.0 µg/ml
Nakaseomyces glabratus = test: Antifungal activity against Candida glabrata 10639 assessed as reduction in fungal growth incubated for 48 hrs by CLSI protocol based microplate reader analysis; assay type: functional
Cryptococcus neoformans [10] = test: Inhibition of CYP51 in Cryptococcus neoformans H99 assessed as increase in other unknown sterol level at 4 ug/ml incubated for 24 hrs by GC-MS analysis (Rvb= 12.49%); details: dose 4.0 µg/ml
Cryptococcus neoformans [11] = test: Antifungal activity against Cryptococcus neoformans H99 assessed as change in internal microstructure by observing cell membrane damage at 4 ug/ml incubated for 8 hrs by TEM analysis; assay type: functional, organism-based; details: dose 4.0 µg/ml
Candida albicans [12] = test: Antifungal activity against Candida albicans SC5314 assessed as reduction in fungal growth incubated for 48 hrs by CLSI protocol based microplate reader analysis; assay type: functional
Cryptococcus neoformans [13] = test: Inhibition of biofilm formation in Cryptococcus neoformans H99 at 16 to 64 ug/ml incubated for 24 hrs by XTT reduction assay; assay type: functional, organism-based; details: dose 16-64 µg/ml
Cryptococcus neoformans [14] = test: Fungicidal activity against Cryptococcus neoformans H99 assessed as reduction in colony forming units at 4 to 8 ug/ml incubated upto 72 hrs by time-kill assay; assay type: functional, organism-based; details: dose 4-8 µg/ml
Cryptococcus neoformans [15] = test: Antifungal activity against Cryptococcus neoformans H99 assessed as reduction in fungal growth at 0.25 to 8 ug/ml incubated upto 72 hrs by microplate reader analysis; assay type: functional, organism-based; details: dose 0.25-8 µg/ml
Cryptococcus neoformans [16] = test: Inhibition of biofilm formation in Cryptococcus neoformans H99 at 0.25 ug/ml incubated for 24 hrs by XTT reduction assay; assay type: functional

| Structure (SMILES) | MIC80 (Candida albicans [3]) [µg/mL] | MIC80 (Cryptococcus neoformans [8]) [µg/mL] | MIC80 (Nakaseomyces glabratus) [µg/mL] | MIC80 (Candida albicans [12]) [µg/mL] | other results |
| --- | --- | --- | --- | --- | --- |
| OC(Cn1cncn1)(Cn1cncn1)c1ccc(F)cc1F [FLUCONAZOLE] | > 64 | 2 (≈ 6.53 µM) | 2 (≈ 6.53 µM) | 0.5 (≈ 1.63 µM) | inhibition (Cryptococcus neoformans [1]): 53.9%; inhibition (Cryptococcus neoformans [2]): 19.2%; Activity (Cryptococcus neoformans [4]): inactive; inhibition (Cryptococcus neoformans [5]): 5.55%; Activity (Cryptococcus neoformans [6]): inactive; Activity (Cryptococcus neoformans [7]): inactive; Activity (Cryptococcus neoformans [9]): inactive; inhibition (Cryptococcus neoformans [10]): 21.4%; Activity (Cryptococcus neoformans [11]): Active |
| CC1(C)N(O)C(c2ccccc2)=[N+]([O-])C1(C)C |  |  |  |  | inhibition (Cryptococcus neoformans [13]): inactive |
| CN(Cc1ccc(CNCCCOc2no[n+]([O-])c2S(=O)(=O)c2ccccc2)cc1)CC(O)(Cn1cncn1)c1ccc(F)cc1F (stereo not drawn) | 32 (≈ 47.8 µM) | 2 (≈ 2.99 µM) | 8 (≈ 11.9 µM) | 16 (≈ 23.9 µM) |  |
| CN(Cc1ccc(OCCCOc2ccc(CC(=O)O)cc2)cc1)CC(O)(Cn1cncn1)c1ccc(F)cc1F (stereo not drawn) |  | 2 (≈ 3.53 µM) |  |  | Activity (Cryptococcus neoformans [14]): inactive |
| CN(Cc1ccc(CNCCOc2no[n+]([O-])c2S(=O)(=O)c2ccccc2)cc1)CC(O)(Cn1cncn1)c1ccc(F)cc1F (stereo not drawn) | 64 (≈ 97.6 µM) | 2 (≈ 3.05 µM) | 8 (≈ 12.2 µM) | 64 (≈ 97.6 µM) |  |
| CN1CCN(/[N+]([O-])=N/Oc2cc(N(C)CC(O)(Cn3cncn3)c3ccc(F)cc3F)c([N+](=O)[O-])cc2[N+](=O)[O-])CC1 (stereo not drawn) | > 64 | 64 (≈ 108 µM) | > 64 | > 64 |  |
| CN(Cc1ccc(OCCCOc2ccc(CC(=O)OCCCCOc3no[n+]([O-])c3S(=O)(=O)c3ccccc3)cc2)cc1)CC(O)(Cn1cncn1)c1ccc(F)cc1F (stereo not drawn) | > 64 | 4 (≈ 4.64 µM) | 4 (≈ 4.64 µM) | 4 (≈ 4.64 µM) |  |
| CN(Cc1ccc(OCCCOc2ccc(CC(=O)OCCOCCOc3no[n+]([O-])c3S(=O)(=O)c3ccccc3)cc2)cc1)CC(O)(Cn1cncn1)c1ccc(F)cc1F (stereo not drawn) | > 64 | 1 (≈ 1.14 µM) | 1 (≈ 1.14 µM) | 1 (≈ 1.14 µM) |  |
| CN(Cc1ccc(OCCCOc2ccc(CC(=O)OCCCCCOc3no[n+]([O-])c3S(=O)(=O)c3ccccc3)cc2)cc1)CC(O)(Cn1cncn1)c1ccc(F)cc1F (stereo not drawn) | > 64 | 4 (≈ 4.56 µM) | 4 (≈ 4.56 µM) | 4 (≈ 4.56 µM) |  |
| CN(Cc1ccc(OCCCOc2ccc(CC(=O)OCCCCO[N+](=O)[O-])cc2)cc1)CC(O)(Cn1cncn1)c1ccc(F)cc1F (stereo not drawn) | > 64 | 0.5 (≈ 0.731 µM) | 0.5 (≈ 0.731 µM) | 2 (≈ 2.93 µM) |  |
| CN(Cc1ccc(OCCCOc2ccc(CC(=O)OCc3ccccc3CO[N+](=O)[O-])cc2)cc1)CC(O)(Cn1cncn1)c1ccc(F)cc1F (stereo not drawn) | > 64 | 0.25 (≈ 0.342 µM) | 1 (≈ 1.37 µM) | 1 (≈ 1.37 µM) |  |
| CN(Cc1ccc(CNCCCCCOc2no[n+]([O-])c2S(=O)(=O)c2ccccc2)cc1)CC(O)(Cn1cncn1)c1ccc(F)cc1F (stereo not drawn) | > 64 | 2 (≈ 2.87 µM) | 8 (≈ 11.5 µM) | 8 (≈ 11.5 µM) |  |
| CN(Cc1ccc(OCCCOc2ccc(CC(=O)OCC#CCOc3no[n+]([O-])c3S(=O)(=O)c3ccccc3)cc2)cc1)CC(O)(Cn1cncn1)c1ccc(F)cc1F (stereo not drawn) | > 64 | 2 (≈ 2.33 µM) | 2 (≈ 2.33 µM) | 16 (≈ 18.6 µM) |  |
| CN(CC(O)(Cn1cncn1)c1ccc(F)cc1F)c1cc(O/N=[N+](\[O-])N2CCCC2)c([N+](=O)[O-])cc1[N+](=O)[O-] (stereo not drawn) | > 64 | 64 (≈ 114 µM) | > 64 | > 64 |  |
| CN(CC(O)(Cn1cncn1)c1ccc(F)cc1F)c1cc(O/N=[N+](\[O-])N(C)CCO)c([N+](=O)[O-])cc1[N+](=O)[O-] (stereo not drawn) | > 64 | 64 (≈ 113 µM) | > 64 | > 64 |  |
| CCN(CC)/[N+]([O-])=N/Oc1cc(N(C)CC(O)(Cn2cncn2)c2ccc(F)cc2F)c([N+](=O)[O-])cc1[N+](=O)[O-] (stereo not drawn) | > 64 | 64 (≈ 113 µM) | > 64 | > 64 |  |
| CN(Cc1ccc(OCCCOc2ccc(CC(=O)OCCCO[N+](=O)[O-])cc2)cc1)CC(O)(Cn1cncn1)c1ccc(F)cc1F (stereo not drawn) | > 64 | 0.125 (≈ 0.187 µM) | 1 (≈ 1.49 µM) | 1 (≈ 1.49 µM) | Activity (Cryptococcus neoformans [15]): Dose-Dependent Effect; inhibition at 0.25 µg/mL (Cryptococcus neoformans [16]): > 50% |
| CN(Cc1ccc(OCCCOc2ccc(CC(=O)OCCCCCO[N+](=O)[O-])cc2)cc1)CC(O)(Cn1cncn1)c1ccc(F)cc1F (stereo not drawn) | > 64 | 0.5 (≈ 0.717 µM) | 0.5 (≈ 0.717 µM) | 1 (≈ 1.43 µM) |  |
| CN(Cc1ccc(OCCCOc2ccc(CC(=O)OCCCCCCOc3no[n+]([O-])c3S(=O)(=O)c3ccccc3)cc2)cc1)CC(O)(Cn1cncn1)c1ccc(F)cc1F (stereo not drawn) | > 64 | 4 (≈ 4.49 µM) | 4 (≈ 4.49 µM) | 8 (≈ 8.98 µM) |  |
| CN(CC(O)(Cn1cncn1)c1ccc(F)cc1F)c1cc(O/N=[N+](\[O-])N2CCC(O)CC2)c([N+](=O)[O-])cc1[N+](=O)[O-] (stereo not drawn) | > 64 | 64 (≈ 108 µM) | > 64 | > 64 |  |
| CN(Cc1ccc(OCCCOc2ccc(CC(=O)O[C@H]3CO[C@H]4[C@@H]3OC[C@H]4O[N+](=O)[O-])cc2)cc1)CC(O)(Cn1cncn1)c1ccc(F)cc1F (stereo partly drawn) | 8 (≈ 10.8 µM) | 1 (≈ 1.35 µM) | 0.5 (≈ 0.676 µM) | 4 (≈ 5.41 µM) |  |
| CN(Cc1ccc(OCCCOc2ccc(CC(=O)NCCOc3no[n+]([O-])c3S(=O)(=O)c3ccccc3)cc2)cc1)CC(O)(Cn1cncn1)c1ccc(F)cc1F (stereo not drawn) | > 64 | 1 (≈ 1.2 µM) | 1 (≈ 1.2 µM) | 2 (≈ 2.4 µM) |  |
| CN(CC(O)(Cn1cncn1)c1ccc(F)cc1F)c1cc(O/N=[N+](\[O-])N2CCC[C@@H]2CO)c([N+](=O)[O-])cc1[N+](=O)[O-] (stereo partly drawn) | > 64 | 64 (≈ 108 µM) | > 64 | > 64 |  |
